{"source": "patent US20250032624A1", "about": "“SMALL MOLECULE DEGRADATION METHODS FOR TREATING ALS/FTD” (University of Florida Research Foundation, Incorporated, priority 2021, published 2025)", "key": {"[1]": {"test_system": "lymphoblastoid cell lines (LCLs)", "assay": "Cell viability in LCLs", "format": "cell-based, human", "conditions": "doses up to 1 μM", "protocol": "Patient-derived LCLs were seeded overnight in 96-well plates (˜10^4 cells/well) and treated with compounds for 96 hours. Cell viability was measured using the CellTiter-Fluor™ Cell Viability Assay (Promega) per the manufacturer's protocol. iPSC cell viability was measured by seeding cells in Matrigel-coated 6-well plates with Basal medium (iPSC maintenance described above). After overnight incubation, the medium was replaced with fresh medium containing compounds diluted in 0.1% DMSO. Cells were treated with compound for 96 hours. Cell viability was measured using the AlamarBlue™ Cell Viability Reagent (DAL1025, Thermo Fisher Scientific) per the manufacturer's protocol. iPSN cell viability was measured by […]"}, "[2]": {"test_system": "transcripts that contain shorter, non-pathogenic r(G4C2) repeats", "assay": "RT-qPCR of eight transcripts with shorter, non-pathogenic r(G4C2) repeats in C9orf72 iPSCs", "format": "cell-based, human", "conditions": "repeat length 2-4, RT-qPCR", "protocol": "Measuring Levels of C9orf72 and C9orf72 Variants by RT-qPCR. LCLs and iPSCs were seeded in 6-well plates (˜10^6 cells in 2 mL of Basal medium) and incubated overnight at 37° C. with 5% CO2. LCLs were then treated with compound for 4 days without media changes; patient-derived iPSCs were seeded at ˜80% confluency and treated, as described above. Treatment with either a G4C2-ASO or Control-ASO (100 nM) was used as a control. ASO transfection was achieved using Lipofectamine RNAiMax (Life Technologies), following the manufacturer's protocol. After 4 days of treatment (with either compound or ASO), total RNA was extracted using the Quick-RNA Miniprep Kit (Zymo Research). RNA was quantified via Nanodrop and ˜1 μg of total RNA was reverse transcribed using qScript (Quantbio), according to the manufacturer's guidelines. RT-qPCR was performed on a QuantStudio™ Real-Time PCR Instrument (Applied Biosystems) using Power SYBR Green Master Mix (Applied Biosystems). Expression levels of mRNAs were normalized to GAPDH. See Table 2 for a list of primers used."}, "C9ORF72 protein": {"test_system": "C9ORF72 protein", "assay": "Western blot of total C9ORF72 protein in c9ALS/FTD iPSCs", "format": "cell-based, human", "protocol": "Protein samples were prepared as described for analysis by the electrochemical luminescent sandwich immunoassay. Approximately 20 μg total protein was loaded onto a 4-20% Mini-PROTEAN® TGX™ Precast Protein Gel (Bio-Rad) and run at 130 V for 1 hour in Tris-Glycine/SDS running buffer (25 mM Tris base, 190 mM glycine, 0.1% SDS, pH 8.3). Following electrophoresis, the protein was transferred to a PVDF membrane using Tris-Glycine transfer buffer (25 mM Tris base, 190 mM glycine, 20% methanol, pH 8.3). After transfer, the membrane was washed with 1×TBST and blocked in a solution of 5% (w/v) milk in 1×TBST for 30 minutes at room temperature with shaking. […] The membrane was then washed three times with 1×TBST and protein expression was quantified using SuperSignal West Pico Plus Chemiluminescent Substrate (Life Technologies), per the manufacturer's protocol, and film exposure. To quantify β-actin expression, the membrane was washed with 1×TBST and stripped using 1×Stripping Buffer (200 mM glycine, 1% (v/v) Tween-20, 0.1% (w/v) SDS, pH 2.2). […] The membrane was washed with 1×TBST and incubated with 1:5,000 anti-mouse IgG horseradish-peroxidase secondary antibody conjugate (Cell Signaling Technology) in 1×TBST at room temperature for 1 hour. β-actin protein expression was quantified as previously described."}, "[3]": {"test_system": "r(G4C2)^exp-containing C9orf72 transcript", "assay": "C9orf72 variants by RT-qPCR in brain of +/+PWR500 BAC mice", "format": "in vivo, mouse", "conditions": "3 weeks", "protocol": "(§1) A total of 20 age- and gender-matched mice (12 +/+PWR500 [5 Male and 7 Female] and 8 WT [4 Male and 4 Female]), ranging from 18-21 weeks old were used in therapeutic efficacy studies (Table 4). Mice were treated with a single bolus injection of 33 nmol of compound 2 formulated in 1% (v/v) DMSO/99% water, administered by an intracerebroventricular injection (ICV). Three weeks post injection, mice were euthanized, and tissue was harvested for study.\nPostmortem brain tissue was harvested and sliced along the sagittal plane at the midline. The left hemisphere was frozen for RNA and protein analysis. Frozen brain tissue was homogenized in 300 μL Tris-EDTA buffer with a 1:5 w/v ratio of 2× Protease and Phosphatase Inhibitors. RNA was extracted from half of the homogenized tissue solution (150 μL) using Triazol LS (added at a 1:3 ratio to the homogenized tissue). The Triazol/tissue solution was centrifuged for 15 minutes at 16,000 rpm and the supernatant was collected. An equal volume of 100% ethanol was added to the supernatant, and RNA was purified using the Direct-zol RNA Kit (Zymo Research) per the manufacturer's protocol. RT-qPCR was then performed as described above. Expression levels of mRNAs were normalized to mouse β-actin."}, "β-actin": {"test_system": "β-actin", "assay": "β-actin abundance in brain of -/-PWR500 (WT) mice", "format": "in vivo, mouse", "protocol": "as §1\nPostmortem brain tissue was harvested and sliced along the sagittal plane at the midline. The left hemisphere was frozen for RNA and protein analysis. Frozen brain tissue was homogenized in 300 μL Tris-EDTA buffer with a 1:5 w/v ratio of 2× protease and phosphatase inhibitors, as was done for RNA analysis of the tissue. Half of the homogenized tissue (150 μL) was mixed with 2× Lysis Buffer (50 mM Tris, pH 7.4, 250 mM NaCl, 2% (v/v) Triton X-100, and 4% (w/v) SDS) and sonicated at 1 second on/off intervals at 30% for a total of 15 seconds. Detergent from was removed using a Pierce™ Detergent Removal Spin Column 0.5 mL (Thermo Scientific) according to the manufacturer's protocol. Protein concentrations were then measured by BCA assay (Pierce Biotechnology) and poly(GP) was measured as described above for the electrochemical luminescent sandwich immunoassay."}, "[4]": {"conditions": "single ICV injection of 10 mg/kg, total brain tissue"}}, "data": [{"smiles": "CCOC(=O)C1=C(Nc2ccccc2)S/C(=C\\c2ccc(OCCOCCOCCOCCNC(=O)CCCOc3ccc4c(c3)c3cc5c(C(=O)N[C@H](C)CN(C)C)nccc5c(C)c3n4C)c(O)c2)C1=O", "note": "[ALS Compound Formula I]", "values": [{"measurement": "toxicity", "setting": "[1]", "value": "no significant toxicity"}, {"measurement": "short r(G4C2) repeat-containing transcripts significantly reduced (of eight)", "setting": "[2]", "value": "only one transcript, SOCS1, was significantly reduced"}, {"measurement": "effect on healthy C9ORF72 protein levels", "setting": "C9ORF72 protein", "value": "no effect"}, {"measurement": "decrease of C9orf72 intron 1 abundance", "setting": "[3]; [4]", "value": "~25", "unit": "%"}, {"measurement": "decrease of exon 2-3 abundance", "setting": "[3]; [4]", "value": "~20", "unit": "%"}, {"measurement": "exon 1b abundance", "setting": "[3]; single ICV injection", "value": "unchanged"}, {"measurement": "exon 1b to exon 2 junction (human C9orf72 abundance)", "setting": "[3]; single ICV injection", "value": "unchanged"}, {"measurement": "β-actin abundance", "setting": "β-actin", "value": "no reduction"}]}]}
